Experimental findings from article PMC5218480 (PLoS ONE, 2017) are described below.

The test system of this test is MV-4-11 cells. The test is described as follows: Gene expression microarray analysis (Affymetrix PrimeView) and GSEA. It counts as cell-based, human. Set-up: RFU PODN (11730768_x_at) / Fold change /veh PODN (11730768_x_at) / RFU LINC00158 (11744669_a_at) / Fold change /veh LINC00158 (11744669_a_at) / RFU DUSP10 (11751237_a_at) / Fold change /veh DUSP10 (11751237_a_at) / RFU ID3 (11757404_x_at) / Fold change /veh ID3 (11757404_x_at) / RFU PLEKHG5 (11737974_s_at) / Fold change /veh PLEKHG5 (11737974_s_at) / RFU LRRC4B (11730491_at) / Fold change /veh LRRC4B (11730491_at) / RFU GIMAP4 (11747438_a_at) / Fold change /veh GIMAP4 (11747438_a_at) / RFU KRT8 (11758183_x_at) / Fold change /veh KRT8 (11758183_x_at) / RFU CNN1 (11734310_a_at) / Fold change /veh CNN1 (11734310_a_at) / RFU VPS37D (11726825_at) / Fold change /veh VPS37D (11726825_at) / RFU C10orf10 (11716522_x_at) / Fold change /veh C10orf10 (11716522_x_at) / RFU KIR2DL2 /// KIR2DL4 /// KIR2DL5A /// KIR2DL5B /// KIR2DS1 /// KIR2DS2 /// KIR2DS3 /// KIR2DS4 /// KIR3DL3 /// KIR3DL3 /// KIR3DS1 (11738374_at) / Fold change /veh KIR2DL2 /// KIR2DL4 /// KIR2DL5A /// KIR2DL5B /// KIR2DS1 /// KIR2DS2 /// KIR2DS3 /// KIR2DS4 /// KIR3DL3 /// KIR3DL3 /// KIR3DS1 (11738374_at) / RFU C1QL1 (11718748_at) / Fold change /veh C1QL1 (11718748_at) / RFU TMPRSS4 (11747572_a_at) / Fold change /veh TMPRSS4 (11747572_a_at) / RFU HAMP (11756126_x_at) / Fold change /veh HAMP (11756126_x_at) / RFU RNFT2 (11725882_a_at) / Fold change /veh RNFT2 (11725882_a_at) / RFU NR4A2 (11747474_a_at) / Fold change /veh NR4A2 (11747474_a_at) / RFU ABCC12 (11746883_a_at) / Fold change /veh ABCC12 (11746883_a_at) / RFU TMEM136 (11760407_x_at) / Fold change /veh TMEM136 (11760407_x_at) / RFU CLDN22 /// WWC2 (11732394_at) / Fold change /veh CLDN22 /// WWC2 (11732394_at) / RFU HLA-DPB1 (11760878_x_at) / Fold change /veh HLA-DPB1 (11760878_x_at) / RFU SPINT1 (11716480_a_at) / Fold change /veh SPINT1 (11716480_a_at) / RFU GAP43 (11754022_s_at) / Fold change /veh GAP43 (11754022_s_at) / RFU A4GNT (11735810_at) / Fold change /veh A4GNT (11735810_at) / RFU PRB3 (11715151_x_at) / Fold change /veh PRB3 (11715151_x_at) / RFU TUBB4B (11761932_at) / Fold change /veh TUBB4B (11761932_at) / RFU CAPN14 (11732068_a_at) / Fold change /veh CAPN14 (11732068_a_at) / RFU TMCC2 (11721928_a_at) / Fold change /veh TMCC2 (11721928_a_at) / RFU IRGQ (11745062_a_at) / Fold change /veh IRGQ (11745062_a_at) / RFU FAM174B (11720279_a_at) / Fold change /veh FAM174B (11720279_a_at) / RFU TMPRSS4 (11748680_a_at) / Fold change /veh TMPRSS4 (11748680_a_at) / RFU FAM212B (11763350_a_at) / Fold change /veh FAM212B (11763350_a_at) / RFU PLEKHG5 (11743358_a_at) / Fold change /veh PLEKHG5 (11743358_a_at) / RFU ZSCAN30 (11745921_a_at) / Fold change /veh ZSCAN30 (11745921_a_at) / RFU CMKLR1 (11741424_a_at) / Fold change /veh CMKLR1 (11741424_a_at) / RFU LOC101060620 /// MAPK8IP1 (11723275_at) / Fold change /veh LOC101060620 /// MAPK8IP1 (11723275_at) / RFU SPTSSB (11747773_x_at) / Fold change /veh SPTSSB (11747773_x_at) / RFU PRSS12 (11739890_at) / Fold change /veh PRSS12 (11739890_at) / RFU BIN1 (11741810_x_at) / Fold change /veh BIN1 (11741810_x_at) / RFU WNT11 (11732464_a_at) / Fold change /veh WNT11 (11732464_a_at) / RFU C10orf10 (11716521_a_at) / Fold change /veh C10orf10 (11716521_a_at) / RFU C5orf56 (11738089_at) / Fold change /veh C5orf56 (11738089_at) / RFU CYB561 (11721691_x_at) / Fold change /veh CYB561 (11721691_x_at) / RFU ANKRD19P (11752326_a_at) / Fold change /veh ANKRD19P (11752326_a_at) / RFU OR2T12 /// OR2T33 /// OR2T8 (11738714_s_at) / Fold change /veh OR2T12 /// OR2T33 /// OR2T8 (11738714_s_at) / RFU VCAN (11748164_a_at) / Fold change /veh VCAN (11748164_a_at) / RFU JSRP1 (11732532_at) / Fold change /veh JSRP1 (11732532_at) / RFU KRTAP10-11 (11738290_x_at) / Fold change /veh KRTAP10-11 (11738290_x_at) / RFU MYO3A (11730013_a_at) / Fold change /veh MYO3A (11730013_a_at) / RFU EBF3 (11725865_a_at) / Fold change /veh EBF3 (11725865_a_at) / RFU CAMK2N1 (11719241_x_at) / Fold change /veh CAMK2N1 (11719241_x_at) / RFU C5orf56 (11738088_a_at) / Fold change /veh C5orf56 (11738088_a_at) / RFU OLFML3 (11715873_a_at) / Fold change /veh OLFML3 (11715873_a_at) / RFU LOC100653217 /// NTM (11731650_a_at) / Fold change /veh LOC100653217 /// NTM (11731650_a_at) / RFU MAPK11 (11762145_a_at) / Fold change /veh MAPK11 (11762145_a_at) / RFU FIZ1 (11724087_x_at) / Fold change /veh FIZ1 (11724087_x_at) / RFU OASL (11726364_x_at) / Fold change /veh OASL (11726364_x_at) / RFU SOX15 (11748057_x_at) / Fold change /veh SOX15 (11748057_x_at) / RFU CD79A (11719716_a_at) / Fold change /veh CD79A (11719716_a_at) / RFU HIST1H1D (11736915_at) / Fold change /veh HIST1H1D (11736915_at) / RFU CASKIN2 (11723855_a_at) / Fold change /veh CASKIN2 (11723855_a_at) / RFU LOC730098 (11760151_x_at) / Fold change /veh LOC730098 (11760151_x_at) / RFU OR4N2 (11742367_at) / Fold change /veh OR4N2 (11742367_at) / RFU PRRT2 (11749266_a_at) / Fold change /veh PRRT2 (11749266_a_at) / RFU SNX32 (11753110_a_at) / Fold change /veh SNX32 (11753110_a_at) / RFU CDHR5 (11726645_a_at) / Fold change /veh CDHR5 (11726645_a_at) / RFU RCAN1 (11760418_a_at) / Fold change /veh RCAN1 (11760418_a_at) / RFU FAM167A (11723789_a_at) / Fold change /veh FAM167A (11723789_a_at) / RFU FAM26E (11764081_at) / Fold change /veh FAM26E (11764081_at) / RFU ISYNA1 (11749810_s_at) / Fold change /veh ISYNA1 (11749810_s_at) / RFU ACY1 (11761880_at) / Fold change /veh ACY1 (11761880_at) / RFU 11764098_at / Fold change /veh 11764098_at / RFU SAMD14 (11745864_x_at) / Fold change /veh SAMD14 (11745864_x_at) / RFU NPB (11741838_a_at) / Fold change /veh NPB (11741838_a_at) / RFU TMPRSS6 (11731388_a_at) / Fold change /veh TMPRSS6 (11731388_a_at) / RFU KRTAP10-2 (11738614_at) / Fold change /veh KRTAP10-2 (11738614_at) / RFU ARHGAP8 /// PRR5-ARHGAP8 (11727945_x_at) / Fold change /veh ARHGAP8 /// PRR5-ARHGAP8 (11727945_x_at) / RFU KRTAP5-7 /// NADSYN1 (11734609_at) / Fold change /veh KRTAP5-7 /// NADSYN1 (11734609_at) / RFU RASL12 (11751679_a_at) / Fold change /veh RASL12 (11751679_a_at) / RFU CDKN2B (11736163_a_at) / Fold change /veh CDKN2B (11736163_a_at) / RFU PRF1 (11729649_at) / Fold change /veh PRF1 (11729649_at) / RFU, ZNF638 /// ZNF638-IT1 / Fold change vs veh, ZNF638 /// ZNF638-IT1 / RFU, PANK3 / Fold change vs veh, PANK3 / RFU, SH3YL1 / Fold change vs veh, SH3YL1 / RFU, ZEB2 / Fold change vs veh, ZEB2 / RFU, NRIP1 / Fold change vs veh, NRIP1 / RFU, PTTG1IP / Fold change vs veh, PTTG1IP / RFU, CAPN2 / Fold change vs veh, CAPN2 / RFU, MED14 / Fold change vs veh, MED14 / RFU, SNORA58 / Fold change vs veh, SNORA58 / RFU, C1orf63 / Fold change vs veh, C1orf63 / RFU, LRRFIP1 / Fold change vs veh, LRRFIP1 / RFU, NDUFAF7 / Fold change vs veh, NDUFAF7 / RFU, SLC12A2 / Fold change vs veh, SLC12A2 / RFU, IBTK / Fold change vs veh, IBTK / RFU, ESF1 / Fold change vs veh, ESF1 / Fold change vs veh, TMEM50B / RFU, TAOK1 / Fold change vs veh, TAOK1 / RFU, ACBD3 / Fold change vs veh, ACBD3 / RFU, TMA16 / Fold change vs veh, TMA16 / RFU, RWDD3 / Fold change vs veh, RWDD3 / RFU, BCAT1 / Fold change vs veh, BCAT1 / RFU, EDEM3 / Fold change vs veh, EDEM3 / RFU, TMEM33 / Fold change vs veh, TMEM33 / RFU, WDR75 / Fold change vs veh, WDR75 / RFU, AHCTF1 / Fold change vs veh, AHCTF1 / RFU, TFRC / Fold change vs veh, TFRC / RFU, ZDHHC17 / Fold change vs veh, ZDHHC17 / RFU, NOM1 / Fold change vs veh, NOM1 / RFU, ARL8B / Fold change vs veh, ARL8B / RFU, ZBTB11 / Fold change vs veh, ZBTB11 / RFU, TAMM41 / Fold change vs veh, TAMM41 / RFU, KIAA1704 /// LOC100996395 / Fold change vs veh, KIAA1704 /// LOC100996395 / RFU, ING1 / Fold change vs veh, ING1 / RFU, TRMT61B / Fold change vs veh, TRMT61B / RFU, FUBP3 / Fold change vs veh, FUBP3 / RFU, TP53 / Fold change vs veh, TP53 / RFU, TNKS2 / Fold change vs veh, TNKS2 / RFU, ZFP14 / Fold change vs veh, ZFP14 / RFU, ACTR2 / Fold change vs veh, ACTR2 / RFU, PPP3R1 / Fold change vs veh, PPP3R1 / RFU, PIK3R1 / Fold change vs veh, PIK3R1 / RFU, HNRNPA1 / Fold change vs veh, HNRNPA1 / RFU, RNF170 / Fold change vs veh, RNF170 / RFU, ZNF28 / Fold change vs veh, ZNF28 / RFU, RNGTT / Fold change vs veh, RNGTT / RFU, OGT / Fold change vs veh, OGT / RFU, BRD1 / Fold change vs veh, BRD1 / RFU, MARS / Fold change vs veh, MARS / RFU, ZNF655 / Fold change vs veh, ZNF655 / RFU, FAHD1 / Fold change vs veh, FAHD1 / RFU, BDP1 / Fold change vs veh, BDP1 / RFU, LRRCC1 / Fold change vs veh, LRRCC1 / RFU, ARID1A / Fold change vs veh, ARID1A / RFU, ZNF146 / Fold change vs veh, ZNF146 / RFU, ZNF330 / Fold change vs veh, ZNF330 / RFU, GPN3 / Fold change vs veh, GPN3 / RFU, C9orf123 / Fold change vs veh, C9orf123 / RFU, N4BP2L2 / Fold change vs veh, N4BP2L2 / RFU, ARFIP1 / Fold change vs veh, ARFIP1 / RFU, FAM179B / Fold change vs veh, FAM179B / RFU, BCL10 / Fold change vs veh, BCL10 / RFU, UHRF1BP1L / Fold change vs veh, UHRF1BP1L / RFU, BET1 / Fold change vs veh, BET1 / RFU, CNOT2 / Fold change vs veh, CNOT2 / RFU, ZNF268 / Fold change vs veh, ZNF268 / Fold change vs veh, ZNF507 / RFU, DGCR2 / Fold change vs veh, DGCR2 / RFU, WDSUB1 / Fold change vs veh, WDSUB1 / Fold change vs veh, HSP90B1 /// MIR3652 / RFU, ADSS / Fold change vs veh, ADSS / RFU, GK / Fold change vs veh, GK / RFU, ZNF148 / Fold change vs veh, ZNF148 / RFU, TAF9 / Fold change vs veh, TAF9 / RFU, SLC1A5 / Fold change vs veh, SLC1A5 / RFU, SLMO2 / Fold change vs veh, SLMO2 / RFU, ABCC4 / Fold change vs veh, ABCC4 / RFU, LOC101060439 /// RAP1B / Fold change vs veh, LOC101060439 /// RAP1B / RFU, RFX7 / Fold change vs veh, RFX7 / RFU, GTPBP10 / Fold change vs veh, GTPBP10 / RFU, CNEP1R1 / Fold change vs veh, CNEP1R1 / RFU, BIVM-ERCC5 /// ERCC5 / Fold change vs veh, BIVM-ERCC5 /// ERCC5 / RFU, ILF3 / Fold change vs veh, ILF3 / RFU 11762660_at / Fold change /veh 11762660_at / RFU VCAN (11757783_s_at) / Fold change /veh VCAN (11757783_s_at) / RFU DDX43 (11728927_at) / Fold change /veh DDX43 (11728927_at) / RFU KRT8 (11758188_x_at) / Fold change /veh KRT8 (11758188_x_at) / RFU NKD1 (11759106_at) / Fold change /veh NKD1 (11759106_at) / RFU SRD5A1 (11742802_a_at) / Fold change /veh SRD5A1 (11742802_a_at) / RFU TPSAB1 /// TPSB2 (11721975_s_at) / Fold change /veh TPSAB1 /// TPSB2 (11721975_s_at) / RFU GSTM3 (11746129_a_at) / Fold change /veh GSTM3 (11746129_a_at) / RFU IL23R (11737362_x_at) / Fold change /veh IL23R (11737362_x_at) / RFU TMEM51 (11727254_a_at) / Fold change /veh TMEM51 (11727254_a_at) / RFU PIWIL2 (11732686_x_at) / Fold change /veh PIWIL2 (11732686_x_at) / RFU ORM1 (11744905_x_at) / Fold change /veh ORM1 (11744905_x_at) / RFU CCDC152 (11743942_at) / Fold change /veh CCDC152 (11743942_at) / RFU ECM1 (11717891_a_at) / Fold change /veh ECM1 (11717891_a_at) / RFU IL23R (11748794_a_at) / Fold change /veh IL23R (11748794_a_at) / RFU TNFAIP8L3 (11732012_x_at) / Fold change /veh TNFAIP8L3 (11732012_x_at) / RFU MBOAT4 (11741988_at) / Fold change /veh MBOAT4 (11741988_at) / RFU 11764193_at / Fold change /veh 11764193_at / RFU TMEM53 (11763286_at) / Fold change /veh TMEM53 (11763286_at) / RFU MAGEB2 (11727129_at) / Fold change /veh MAGEB2 (11727129_at) / RFU TMEM200A (11744735_a_at) / Fold change /veh TMEM200A (11744735_a_at) / RFU CCDC152 (11751479_a_at) / Fold change /veh CCDC152 (11751479_a_at) / RFU FAM211A (11726209_a_at) / Fold change /veh FAM211A (11726209_a_at) / RFU RGS16 (11746705_a_at) / Fold change /veh RGS16 (11746705_a_at) / RFU VCAN (11755009_s_at) / Fold change /veh VCAN (11755009_s_at) / RFU RHOB (11743442_s_at) / Fold change /veh RHOB (11743442_s_at) / RFU RGS16 (11720943_a_at) / Fold change /veh RGS16 (11720943_a_at) / RFU RGS16 (11720944_at) / Fold change /veh RGS16 (11720944_at) / RFU, VPS4B / Fold change vs veh, VPS4B / RFU, CREB1 / Fold change vs veh, CREB1 / RFU, DNAJC13 / Fold change vs veh, DNAJC13 / RFU, GNAQ / Fold change vs veh, GNAQ / RFU, CDK5R1 / Fold change vs veh, CDK5R1 / RFU, ZRANB3 / Fold change vs veh, ZRANB3 / RFU, CUL4A / Fold change vs veh, CUL4A / RFU, CCNY / Fold change vs veh, CCNY / RFU, UFL1 / Fold change vs veh, UFL1 / RFU, COG3 / Fold change vs veh, COG3 / RFU, DIAPH2 / Fold change vs veh, DIAPH2 / RFU, SKA2 / Fold change vs veh, SKA2 / RFU, AFF3 / Fold change vs veh, AFF3 / RFU, LMF1 / Fold change vs veh, LMF1 / RFU, IPO11 / Fold change vs veh, IPO11 / RFU, DFFB / Fold change vs veh, DFFB / RFU, FOXP1 / Fold change vs veh, FOXP1 / RFU, CARD8 / Fold change vs veh, CARD8 / RFU, STRN3 / Fold change vs veh, STRN3 / RFU, ADK / Fold change vs veh, ADK / RFU, RASSF2 / Fold change vs veh, RASSF2 / RFU, WIPF1 / Fold change vs veh, WIPF1 / RFU, LARP1B / Fold change vs veh, LARP1B / RFU, RASA1 / Fold change vs veh, RASA1 / RFU, RB1 / Fold change vs veh, RB1 / RFU, PPFIA1 / Fold change vs veh, PPFIA1 / RFU, MAT2A / Fold change vs veh, MAT2A / RFU, CCT5 / Fold change vs veh, CCT5 / RFU, WDR92 / Fold change vs veh, WDR92 / RFU, CUX1 / Fold change vs veh, CUX1 / RFU, TTC7A / Fold change vs veh, TTC7A / RFU, TMEM135 / Fold change vs veh, TMEM135 / RFU, DEPTOR / Fold change vs veh, DEPTOR / RFU, CPM / Fold change vs veh, CPM / RFU, DNAJB6 / Fold change vs veh, DNAJB6 / RFU, CACNA2D3 / Fold change vs veh, CACNA2D3 / RFU, DTX4 / Fold change vs veh, DTX4 / RFU, TFCP2 / Fold change vs veh, TFCP2 / RFU, GMCL1 /// GMCL1P1 / Fold change vs veh, GMCL1 /// GMCL1P1 / RFU, AEBP2 / Fold change vs veh, AEBP2 / RFU, SNHG1 /// SNORD22 /// SNORD25 /// SNORD26 /// SNORD27 /// SNORD28 /// SNORD29 /// SNORD31 / Fold change vs veh, SNHG1 /// SNORD22 /// SNORD25 /// SNORD26 /// SNORD27 /// SNORD28 /// SNORD29 /// SNORD31 / Fold change (Aza/veh), C12orf56 (ProbeSet 11735607_a_at) / Fold change (ACY-1035/veh), C12orf56 (ProbeSet 11735607_a_at) / Fold change (Aza/veh), FGFR1OP (ProbeSet 11751329_s_at) / Fold change (ACY-1035/veh), FGFR1OP (ProbeSet 11751329_s_at) / Fold change (Aza/veh), VPS36 (ProbeSet 11739960_a_at) / Fold change (ACY-1035/veh), VPS36 (ProbeSet 11739960_a_at) / RFU SYPL1 (11715823_x_at) / Fold change /veh SYPL1 (11715823_x_at) / RFU IGFBP7 (11715501_s_at) / Fold change /veh IGFBP7 (11715501_s_at) / RFU REEP3 (11722064_at) / Fold change /veh REEP3 (11722064_at) / RFU IGLL1 (11728026_x_at) / Fold change /veh IGLL1 (11728026_x_at): dose or concentration left out as unconfirmed. The note with it: MV-4-11 cells, 48 hours.

Structures are written as SMILES.

With `Nc1ccc(-c2cccs2)cc1NC(=O)c1ccc2c(c1)cc(C1CC1)n2CCN1CCOCC1` [ACY-1035], the “Fold change /veh PODN (11730768_x_at)” value is reported as 1.05.
